One compound from patent US20070286898A1, “Intracellular Drug Delivery Improving Liposome” (ASTELLAS PHARMA INC., priority 2004, published 2007) can be followed below.

This test relates to Ehrlich's ascites carcinoma cell. Kind of test: Cell-killing effect upon Ehrlich's ascites carcinoma cell using WST. The class given is cell-based. The following applies: 1×10^6 cells, read-out: IC50 (doxorubicin concentration by which 50% of cell-killing effect is obtained). Here is the method:
The preparations prepared in Examples 1 and 2 and Comparative Examples 1, 2 and 3 were adjusted to various concentrations, and the resulting liquids were added to Ehrlich's ascites carcinoma cell (1×10^6 cells) to examine their cell-killing effects using WST.
Based on the results of plotting a relationship between the doxorubicin concentration in each preparation and its cell-killing effect, the doxorubicin concentration by which 50% of cell-killing effect is obtained was calculated (Table 1). By this, it was shown that the liposome preparations of the present invention show significant pharmacological effect in comparison with Comparative Examples.

In the case of `COc1cccc2c1C(=O)c1c(O)c3c(c(O)c1C2=O)C[C@@](O)(C(=O)CO)C[C@@H]3O[C@H]1C[C@H](N)[C@H](O)[C@H](C)O1` [Comparative Example 3, doxorubicin], the IC50 amounted to 3.45 µM.
